Data reported in the supplement of paper PMC10307832.

Assays:
Experiment in all cases: relative viability (nuclei count vs DMSO), 5 days (fraction); higher = more cells survive
Selisistat + Trametinib = compound: C1CC(C2=C(C1)C3=C(N2)C=CC(=C3)Cl)C(=O)N [Selisistat] + CC(=O)Nc1cccc(-n2c(=O)n(C3CC3)c(=O)c3c(Nc4ccc(I)cc4F)n(C)c(=O)c(C)c32)c1 [Trametinib] (partner 0.02 µM)
How it was run: (§1)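 Each reported value is a median over duplicate plates. It expresses relative viability: treated-well nuclei count divided by vehicle-well nuclei count. Lung cancer cell lines in 1536-well plates were dosed by pin tool a day after seeding, alone with one drug or with a fixed anchor-drug dose plus five library-drug doses (not always all listed) in √10 steps, and nuclei were counted after 5 days.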

Serdemetan + Vorinostat = compound: c1ccc2c(CCNc3ccc(Nc4ccncc4)cc3)c[nH]c2c1 [Serdemetan] + O=C(CCCCCCC(=O)Nc1ccccc1)NO [Vorinostat] (partner 1 µM)
How it was run: as §1

Selisistat + Phenformin = compound: C1CC(C2=C(C1)C3=C(N2)C=CC(=C3)Cl)C(=O)N [Selisistat] + N=C(N)NC(=N)NCCc1ccccc1 [Phenformin] (partner 250 µM)
How it was run: as §1

Selisistat + Alpelisib = compound: C1CC(C2=C(C1)C3=C(N2)C=CC(=C3)Cl)C(=O)N [Selisistat] + Cc1nc(NC(=O)N2CCC[C@H]2C(N)=O)sc1-c1ccnc(C(C)(C)C(F)(F)F)c1 [Alpelisib] (partner 2 µM)
How it was run: as §1

| Cell Line | relative viability (Selisistat + Trametinib; first compound 0.4 µM) | relative viability (Selisistat + Trametinib; first compound 1.265 µM) | relative viability (Selisistat + Trametinib; first compound 12.65 µM) | relative viability (Selisistat + Trametinib; first compound 40 µM) | relative viability (Serdemetan + Vorinostat; first compound 0.04 µM) | relative viability (Serdemetan + Vorinostat; first compound 0.1265 µM) | relative viability (Serdemetan + Vorinostat; first compound 0.4 µM) | relative viability (Serdemetan + Vorinostat; first compound 1.265 µM) | relative viability (Serdemetan + Vorinostat; first compound 4 µM) | relative viability (Selisistat + Phenformin; first compound 0.4 µM) | relative viability (Selisistat + Phenformin; first compound 1.265 µM) | relative viability (Selisistat + Phenformin; first compound 4 µM) | relative viability (Selisistat + Phenformin; first compound 12.65 µM) | relative viability (Selisistat + Phenformin; first compound 40 µM) | relative viability (Selisistat + Alpelisib; first compound 0.4 µM) | relative viability (Selisistat + Alpelisib; first compound 1.265 µM) | relative viability (Selisistat + Alpelisib; first compound 12.65 µM) | relative viability (Selisistat + Alpelisib; first compound 40 µM) | relative viability (Selisistat + Trametinib; first compound 4 µM) | relative viability (Selisistat + Alpelisib; first compound 4 µM) |
| --- | --- | --- | --- | --- | --- | --- | --- | --- | --- | --- | --- | --- | --- | --- | --- | --- | --- | --- | --- | --- |
| NCI-H322M | 0.483 | 0.575 | 0.567 | 0.545 | 0.798 | 0.906 | 0.857 | 0.806 | 0.854 | 0.768 | 0.837 | 0.656 | 0.77 | 0.915 | 0.932 | 0.934 | 0.734 | 0.819 | – | – |
| NCI-H358 | 0.146 | 0.16 | 0.129 | 0.122 | 0.677 | 0.689 | 0.612 | 0.402 | 0.461 | 0.358 | 0.281 | 0.186 | 0.332 | 0.412 | 0.865 | 0.942 | 0.932 | 0.912 | 0.122 | – |
| NCI-H441 | 0.455 | 0.432 | 0.398 | 0.452 | 0.795 | 0.71 | 0.765 | 0.479 | 0.436 | 0.801 | 0.799 | 0.698 | 0.779 | 0.8 | 0.804 | 0.64 | 0.691 | 0.707 | 0.363 | – |
| NCI-H460 | 0.129 | 0.128 | 0.117 | 0.142 | 0.595 | 0.435 | 0.296 | 0.0775 | 0.0723 | 0.598 | 0.565 | 0.366 | 0.495 | 0.571 | 0.517 | 0.54 | 0.403 | 0.35 | 0.0976 | – |
| NCI-H520 | 0.545 | 0.599 | 0.681 | 0.637 | 0.785 | 0.688 | 0.683 | 0.438 | 0.548 | 0.598 | 0.485 | 0.577 | 0.533 | 0.528 | 0.762 | 0.736 | 0.957 | 0.73 | 0.651 | 1.07 |
| NCI-H596 | 0.864 | 0.843 | 0.733 | 0.813 | 0.568 | 0.543 | 0.578 | 0.428 | 0.425 | 0.742 | 0.816 | 0.584 | 0.593 | 0.716 | 0.587 | 0.482 | 0.502 | 0.482 | 0.831 | 0.42 |
| NCI-H647 | 0.467 | 0.457 | 0.472 | 0.474 | 0.517 | 0.693 | 0.645 | 0.516 | 0.483 | 0.561 | 0.499 | 0.43 | 0.324 | 0.678 | 1.1 | 1.03 | 1.09 | 1.31 | 0.449 | – |
| NCI-H650 | 0.978 | 1.01 | 0.909 | 1.01 | 0.352 | 0.478 | 0.51 | 0.405 | 0.46 | 0.499 | 0.432 | 0.441 | 0.432 | 0.485 | 1.38 | – | 1.06 | 1.15 | 0.967 | 1.47 |
| NCI-H661 | 0.522 | 0.541 | 0.502 | 0.45 | 0.77 | 0.793 | 0.738 | 0.712 | 0.752 | 0.27 | 0.263 | 0.282 | 0.286 | 0.251 | 0.766 | 0.675 | 0.508 | 0.546 | 0.442 | 0.555 |
| NCI-H727 | 0.467 | 0.38 | 0.427 | 0.44 | 1.3 | 1.12 | 1.12 | 1.28 | 0.849 | 0.564 | 0.534 | – | 0.398 | 0.478 | 0.553 | 0.714 | – | 0.458 | 0.409 | – |
| NCI-H838 | 0.592 | 0.482 | 0.516 | 0.507 | 0.729 | 0.69 | 0.684 | 0.728 | 0.696 | 0.62 | 0.478 | 0.346 | 0.547 | 0.57 | 1.11 | 0.971 | 1.1 | 0.954 | 0.511 | 0.912 |
| NCI-H1355 | 0.422 | 0.462 | 0.438 | 0.43 | 0.654 | 0.688 | 0.632 | 0.617 | 0.541 | 0.488 | 0.486 | 0.433 | 0.465 | 0.462 | 0.936 | 0.874 | 0.862 | 1.05 | 0.422 | – |
| NCI-H1395 | 1.13 | 0.939 | 0.979 | 0.917 | 0.574 | 0.848 | 0.696 | 0.526 | 0.508 | 0.509 | 0.432 | 0.427 | 0.42 | 0.42 | 1.07 | 1.01 | 0.864 | 0.996 | – | 0.977 |
| NCI-H1437 | 0.558 | 0.485 | 0.5 | 0.477 | 0.771 | 0.786 | 0.79 | 0.623 | 0.616 | 0.354 | 0.317 | 0.278 | 0.29 | 0.308 | 1.03 | 0.987 | 0.981 | 0.919 | 0.488 | 0.787 |
| NCI-H1651 | 0.855 | 0.871 | 0.842 | 0.817 | 0.573 | 0.386 | 0.509 | 0.492 | 0.336 | 0.381 | 0.293 | 0.274 | 0.307 | 0.284 | 0.945 | 0.905 | 0.894 | 1.01 | 0.799 | 0.944 |
| NCI-H1666 | 0.839 | 0.833 | 0.839 | 0.83 | 0.896 | 0.935 | 0.907 | – | 0.713 | 0.514 | 0.606 | 0.582 | 0.538 | 0.529 | 1.06 | 0.978 | 0.847 | 0.748 | 0.987 | 0.946 |
| NCI-H1734 | 0.714 | 0.674 | 0.694 | 0.718 | 0.65 | 0.366 | 0.331 | 0.149 | 0.128 | 0.442 | 0.377 | 0.324 | 0.382 | 0.356 | 0.744 | 0.621 | 0.739 | 0.706 | 0.656 | 0.697 |
| NCI-H1755 | 0.83 | 0.883 | 0.764 | 0.841 | 0.648 | 0.811 | 0.741 | 0.54 | 0.459 | 0.645 | 0.615 | 0.585 | 0.559 | 0.618 | 1.03 | 0.958 | 0.956 | 0.935 | 0.783 | 0.94 |
| NCI-H1793 | 0.38 | 0.431 | 0.438 | 0.381 | 0.808 | 0.671 | 0.439 | 0.286 | 0.397 | 0.398 | 0.366 | – | 0.303 | 0.388 | 0.859 | 0.625 | 0.958 | 0.834 | – | – |
| NCI-H1915 | 0.348 | 0.307 | 0.297 | 0.342 | 0.538 | 0.535 | 0.513 | 0.508 | 0.509 | 0.377 | 0.356 | 0.368 | 0.355 | 0.368 | 1.08 | 1.03 | 1.05 | 1.04 | 0.318 | 1.09 |
| NCI-H1944 | 0.437 | 0.383 | 0.44 | 0.446 | 0.485 | 0.628 | 0.635 | 0.339 | 0.294 | 0.209 | 0.201 | – | 0.196 | 0.214 | 0.92 | 0.779 | 0.729 | 0.823 | 0.455 | – |
| NCI-H1975 | 0.371 | 0.358 | 0.329 | 0.33 | 0.718 | 0.725 | 0.697 | 0.743 | 0.687 | 0.419 | 0.422 | 0.366 | 0.41 | 0.382 | 0.656 | 0.553 | 0.604 | 0.579 | 0.262 | 0.588 |
| NCI-H1993 | 0.519 | 0.496 | 0.518 | 0.573 | 0.935 | 0.609 | 0.669 | 0.767 | 0.782 | 0.518 | 0.545 | 0.528 | 0.556 | 0.537 | 0.575 | 0.67 | 0.775 | 0.721 | – | – |
| NCI-H2009 | 0.285 | 0.278 | 0.259 | 0.282 | 0.583 | 0.695 | 0.805 | 0.638 | 0.558 | 0.509 | 0.483 | 0.366 | 0.449 | 0.422 | 1.22 | 1.1 | 0.835 | 1.12 | 0.287 | 1.25 |
| NCI-H2023 | 0.608 | 0.473 | 0.47 | 0.573 | 0.48 | 0.708 | 0.53 | 0.343 | 0.258 | 0.413 | 0.398 | 0.455 | 0.312 | 0.357 | 0.594 | 0.52 | 0.59 | 0.592 | 0.607 | 0.608 |
| NCI-H2085 | 0.518 | 0.61 | 0.554 | 0.761 | 0.761 | 0.776 | 0.695 | 0.484 | 0.524 | 0.824 | 0.717 | 0.472 | 0.735 | 0.728 | 1.04 | 0.983 | 1.06 | 0.919 | 0.581 | 0.968 |
| NCI-H2087 | 0.194 | 0.164 | 0.22 | 0.202 | 0.864 | 0.316 | 0.527 | 0.226 | 0.213 | 0.54 | 0.455 | – | 0.44 | 0.472 | 1.33 | 0.933 | 0.971 | 1.04 | – | 1 |
